Test results from patent publication US20020137929A1, “1 - (3-heterocyclylphenyl) isothiourea, -isourea, -guanidine and -amidine herbicidal agents” (Intellectual Property Department, BASF Aktiengesellschaft, priority 1998, published 2002).

Tests used:
[1] = tested on: ABUTH (Velvetleaf); experiment: Postemergence herbicidal evaluation; assay type: in vivo, Abutilon theophrasti; settings: postemergence
Method in brief: (§1)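 Scores (0–9) reflect plant stand, vigor, malformation, size, chlorosis and general appearance relative to control, read 4 to 5 weeks after treatment and averaged where tests were repeated. Application: about 0.0156–0.500 kg/ha sprayed at 40 psi onto two-week seedlings.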

[2] = tested on: IPOHE (Morningglory, Ivyleaf); experiment: Postemergence herbicidal evaluation; assay type: in vivo, Ipomoea hederacea; settings: postemergence
Method in brief: as §1

[3] = tested on: TRZAWR (Wheat, Winter, cv Riband); experiment: Postemergence herbicidal evaluation; assay type: in vivo, Triticum aestivum; settings: postemergence
Method in brief: as §1

[4] = tested on: CHEAL (Lambsquarters, Common); experiment: Preemergence herbicidal evaluation; assay type: in vivo, Chenopodium album; settings: rated 4-5 weeks after treatment, rating scale 0-9
Method in brief: (§2)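 Steps: mix seeds into potting soil; plant atop ~1 inch soil; spray compound in aqueous acetone (~0.0156-0.500 kg/ha equivalent); maintain in greenhouse with watering; rate visually 0-9 versus control at 4-5 weeks.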

[5] = tested on: IPOHE (Morningglory, Ivyleaf); experiment: Preemergence herbicidal evaluation; assay type: in vivo, Ipomoea hederacea; settings: rated 4-5 weeks after treatment, rating scale 0-9
Method in brief: as §2

[6] = tested on: ECHCG (Barnyardgrass); experiment: Preemergence herbicidal evaluation; assay type: in vivo, Echinochloa crus-galli; settings: rated 4-5 weeks after treatment, rating scale 0-9
Method in brief: as §2

[7] = tested on: SETVI (Foxtail, Green); experiment: Preemergence herbicidal evaluation; assay type: in vivo, Setaria viridis; settings: rated 4-5 weeks after treatment, rating scale 0-9
Method in brief: as §2

[8] = tested on: ORYSAT (Rice, Tebonnet); experiment: Preemergence herbicidal evaluation; assay type: in vivo, Oryza sativa, (L.) Tebonnet; settings: rated 4-5 weeks after treatment, rating scale 0-9
Method in brief: as §2

[9] = tested on: TRZAWR (Wheat, Winter, cv Riband); experiment: Preemergence herbicidal evaluation; assay type: in vivo, Triticum aestivum; settings: rated 4-5 weeks after treatment, rating scale 0-9
Method in brief: as §2

[10] = tested on: ECHORC (Watergrass (Calif.)); experiment: Preemergence weed control under flooded paddy conditions; assay type: in vivo, Echinochloa oryzoides; settings: rated 3-4 weeks after treatment
Method in brief: (§3)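 Ratings on a 0-9 visual scale cover stand, vigor, malformation, size, chlorosis and overall appearance relative to a control, taken three to four weeks post-treatment. Application was into flood water over freshly sown silt loam at roughly 0.0313 to 0.500 kg/ha.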

[11] = tested on: MOOVA (Monochoria); experiment: as above; assay type: in vivo, Monochoria vaginalis; settings: rated 3-4 weeks after treatment
Method in brief: as §3

For `Cn1c(C(F)(F)F)cc(=O)n(-c2cc(N=C3SCC(=O)N3Cc3ccccc3Cl)c(Cl)cc2F)c1=O` [Compound 143], which “herbicidal rating ABUTH” value ([1]; rate 0.0156 kg/ha) is on record?
Its value is 9.0.

And the “herbicidal rating ABUTH” value ([1]; rate 0.0313 kg/ha)?
The value was 9.0.

And the “herbicidal rating ABUTH” value ([1]; rate 0.0625 kg/ha)?
Its value is 9.0.

And the “herbicidal rating IPOHE” value ([2]; rate 0.0156 kg/ha)?
The value was 9.0.

And the “herbicidal rating IPOHE” value ([2]; rate 0.0313 kg/ha)?
The value was 9.0.

What about the “herbicidal rating IPOHE” value ([2]; rate 0.0625 kg/ha) of the same compound?
The value was 9.0.

What about the “herbicidal rating TRZAWR” value ([3]; rate 0.0156 kg/ha) of the same compound?
The value was 1.5.

And the “herbicidal rating TRZAWR” value ([3]; rate 0.0313 kg/ha)?
The value was 2.0.

And the “herbicidal rating TRZAWR” value ([3]; rate 0.0625 kg/ha)?
The value was 3.5.

What about the “Preemergence herbicidal rating CHEAL” value ([4]; rate 0.0313 kg/ha) of the same compound?
Its value is 7.0.

What about the “Preemergence herbicidal rating CHEAL” value ([4]; rate 0.0625 kg/ha) of the same compound?
Its value is 7.0.

And the “Preemergence herbicidal rating CHEAL” value ([4]; rate 0.1250 kg/ha)?
The value was 9.0.

And the “Preemergence herbicidal rating CHEAL” value ([4]; rate 0.2500 kg/ha)?
Its value is 9.0.

And the “Preemergence herbicidal rating IPOHE” value ([5]; rate 0.0313 kg/ha)?
The value was 0.0.

And the “Preemergence herbicidal rating IPOHE” value ([5]; rate 0.0625 kg/ha)?
Its value is 0.0.

What about the “Preemergence herbicidal rating IPOHE” value ([5]; rate 0.1250 kg/ha) of the same compound?
The value was 1.0.

And the “Preemergence herbicidal rating IPOHE” value ([5]; rate 0.2500 kg/ha)?
Its value is 3.0.

What about the “Preemergence herbicidal rating ECHCG” value ([6]; rate 0.0313 kg/ha) of the same compound?
The value was 0.0.

What about the “Preemergence herbicidal rating ECHCG” value ([6]; rate 0.0625 kg/ha) of the same compound?
Its value is 0.0.

And the “Preemergence herbicidal rating ECHCG” value ([6]; rate 0.1250 kg/ha)?
The value was 1.0.

What about the “Preemergence herbicidal rating ECHCG” value ([6]; rate 0.2500 kg/ha) of the same compound?
The value was 1.0.

What about the “Preemergence herbicidal rating SETVI” value ([7]; rate 0.0313 kg/ha) of the same compound?
Its value is 0.0.

What about the “Preemergence herbicidal rating SETVI” value ([7]; rate 0.0625 kg/ha) of the same compound?
Its value is 0.0.

And the “Preemergence herbicidal rating SETVI” value ([7]; rate 0.1250 kg/ha)?
The value was 3.0.

What about the “Preemergence herbicidal rating SETVI” value ([7]; rate 0.2500 kg/ha) of the same compound?
Its value is 3.0.

And the “Preemergence herbicidal rating ORYSAT” value ([8]; rate 0.0313 kg/ha)?
The value was 0.0.

What about the “Preemergence herbicidal rating ORYSAT” value ([8]; rate 0.0625 kg/ha) of the same compound?
Its value is 0.0.

What about the “Preemergence herbicidal rating ORYSAT” value ([8]; rate 0.1250 kg/ha) of the same compound?
The value was 0.0.

What about the “Preemergence herbicidal rating ORYSAT” value ([8]; rate 0.2500 kg/ha) of the same compound?
Its value is 1.0.

What about the “Preemergence herbicidal rating TRZAWR” value ([9]; rate 0.0313 kg/ha) of the same compound?
The value was 0.0.

What about the “Preemergence herbicidal rating TRZAWR” value ([9]; rate 0.0625 kg/ha) of the same compound?
Its value is 0.0.

What about the “Preemergence herbicidal rating TRZAWR” value ([9]; rate 0.1250 kg/ha) of the same compound?
Its value is 0.0.

What about the “Preemergence herbicidal rating TRZAWR” value ([9]; rate 0.2500 kg/ha) of the same compound?
The value was 1.0.

What about the “herbicidal effect rating, ECHORC” value ([10]; 0.0313 kg/ha) of the same compound?
The value was 5.0.

And the “herbicidal effect rating, ECHORC” value ([10]; 0.0625 kg/ha)?
The value was 7.0.

What about the “herbicidal effect rating, ECHORC” value ([10]; 0.1250 kg/ha) of the same compound?
Its value is 9.0.

And the “herbicidal effect rating, ECHORC” value ([10]; 0.2500 kg/ha)?
Its value is 9.0.

What about the “herbicidal effect rating, MOOVA” value ([11]; 0.0313 kg/ha) of the same compound?
The value was 5.0.

And the “herbicidal effect rating, MOOVA” value ([11]; 0.0625 kg/ha)?
Its value is 6.0.

And the “herbicidal effect rating, MOOVA” value ([11]; 0.1250 kg/ha)?
The value was 6.0.

And the “herbicidal effect rating, MOOVA” value ([11]; 0.2500 kg/ha)?
Its value is 6.0.
